Where two headings read alike, the source gives them in different places. One block for each molecule: values may come before it.
What was measured:
[1] = test system: MDA-1986 cells; experiment: Cell growth inhibition (resazurin blue), MDA-1986; assay type: cell-based, human; conditions: 72 hours
Description: (§1) Cell growth inhibition was determined in 96-well plates (3,000 cells/well in 100 μL, 12 replicates/sample) using highly invasive human breast cancer cells, MDA-MB-231, non-metastatic human breast cancer cells, MDA-MB-468, and highly invasive human head and neck squamous cell cancer cells positive for epithelia growth factor receptor, MDA-1986. Drug or conjugate solutions were applied after 24 hours, and 72 hours post-addition, resazurin blue in 10 μL of PBS was applied to each well (final concentration 5 μM).

[2] = test system: MDA-MB-468 cells; experiment: Cell growth inhibition (resazurin blue), MDA-MB-468; assay type: cell-based, human; conditions: 72 hours
Description: as §1

[3] = test system: MDA-1986 human head and neck squamous cell carcinoma; experiment: Head and neck tumor model, efficacy of sugar-NO1; assay type: in vivo, female nude mice
[4] = test system: B16F10 cells; experiment: cells; assay type: cell-based, murine; conditions: for IC50: read-out: IC50s B16F10
Description: (§2) B16F10 (lymphatically metastatic murine melanoma), MDA-MB-231 (human breast cancer), and HUVEC (normal human endothelial) cell lines, were maintained in Dulbecco's modified Eagle's medium (DMEM) supplemented with 1% L-Glutamine and 10% bovine growth serum in 5% CO2 atmosphere. The HER2-expressing murine breast cancer cell line, 4T1.2 Neu was maintained in DMEM supplemented with 1% L-Glutamine, 10% bovine growth serum, and 500 μg/mL of G418 (geneticin) in 5% CO2 atmosphere. The lymphatically metastatic human melanoma cell line, A2058 was maintained in low sodium bicarbonate (1.5 g/L) containing DMEM supplemented with 1% L-Glutamine, 10% bovine growth serum in 5% CO2 atmosphere.
(§3) Prior to cell growth inhibition studies, cells were trypsinized and seeded at 3000 cells/well into 96-well tissue culture plates. After 24 hours, geldanamycin, 17-DMAG, 17-AAG, 17-HEAG, Star-GA (GA basis), or melphalan hydrochloride dilutions in 1×PBS (Fisher BioReagents, pH 7.4) with up to 3% DMSO (final well concentration, for the highest drug concentration) were added to the B16F10, A2058, HUVEC, 4T1.2 Neu, or MDA-MB-231 cells (n=8 or 12, 10 μL/well, 8 or 6 concentrations 10^−10 to 10^−3 M, respectively). Solutions of 10% trichloracetic acid was used as a negative control, media was used as a positive control, and 3% DMSO was used as an additional control (n=8 or 12, 10 μL/well). At 72 h post addition, 10 μL of resazurin blue in PBS was added (5 μM final concentration) to each well. After 3 hours, well fluorescence was measured (λex/λem=560/590 nm) (SpectraMax Gemini, Molecular Devices). IC50s were determined using the nonlinear regression curve fit of a one-site competition (GraphPad Prism 10).

[5] = test system: A2058 cells; experiment: In vitro cytotoxicity (resazurin blue), A2058; assay type: cell-based, human; conditions: read-out: IC50s A2058
Description: as §2, §3

[6] = test system: HUVEC cells; experiment: In vitro cytotoxicity (resazurin blue), HUVEC; assay type: cell-based, human
Description: as §2, §3

[7] = test system: 4T1.2 Neu cells; experiment: In vitro cytotoxicity (resazurin blue), 4T1.2 Neu; assay type: cell-based, murine; conditions: 72 h, Star-GA on GA basis, read-out: IC50s 4T1.2 Neu
Description: as §2, §3

[8] = test system: MDA-MB-231 cells; experiment: In vitro cytotoxicity (resazurin blue), MDA-MB-231; assay type: cell-based, human; conditions: 72 h, Star-GA on GA basis, read-out: IC50s MDA-MB-231
Description: as §2
Prior to cell growth inhibition studies, cells were trypsinized and seeded at 3000 cells/well into 96-well tissue culture plates. […] After 3 hours, well fluorescence was measured (λex/λem=560/590 nm) (SpectraMax Gemini, Molecular Devices). IC50s were determined using the nonlinear regression curve fit of a one-site competition (GraphPad Prism 10).

[9] = test system: B16F10 tumors; assay type: in vivo; conditions: for B16F10 tumor response: melphalan i.v. 5 mg/kg, 17-DMAG i.v. 15 mg/kg, Star-GA s.c. 15 mg/kg DMAG equivalent, polymer s.c. equivalent dose, vs non-treated
Description: . The tumors were measured and recorded, the volumes were calculated using the equation: Tumor Volume (mm^3)=0.52×(width)^2×length. When the B16F10 tumors reached 200-350 mm^3 (ca. Days 6-9), mice were randomly divided into five treatment groups: melphalan (i.v., n=5), 17-DMAG (i.v., n=4), star polymer (s.c., n=6), Star-GA (s.c., n=7), or no treatment (n=4) (FIG. 30).
Mice in the melphalan treatment group were injected once with melphalan (5 mg/kg) intravenously via the tail veil under isoflurane anesthesia. The formulation used to treat mice bearing B16F10 tumors was modified slightly from the product insert for ALKERAN (melphalan hydrochloride) for injections into humans. Melphalan was dissolved in concentrated hydrochloric acid (35-38%) to give a 15 mg/mL solution. The melphalan solution was then aliquoted into vials to give 0.75 mg melphalan/vial, and was dried using a speedvac concentrator (Labconoco) for 1.5 hours at 35° C. followed by 1 hour at ambient temperature. The vials containing dry melphalan hydrochloride were sealed and placed at −20° C. until further use. The reconstituted solution was prepared by first pre-sterilizing propylene glycol, 95% ethanol, and 0.02 g/mL sodium citrate solution, using a sterile syringe fitted with a 0.22 μm sterile filter (Millex GP PES membrane sterile filter, Millipore) into a sterile falcon tube. Then the reconstituted solution was prepared by combining 6 mL sterile propylene glycol, 0.52 mL sterile ethanol (95%), and 3.48 mL sodium citrate solution, and the solution was mixed well and filtered a second time with at 0.22 μm sterile filter. Immediately prior to injection, the 150 μL of the sterile reconstituted solution was rapidly added to the melphalan hydrochloride, the vial was immediately shaken vigorously until dissolved, followed by the rapid addition of 150 μL of sterile saline yielding a 2.5 mg/mL melphalan solution. The melphalan was dosed within 10 to 15 minutes after reconstitution to minimize degradation.
17-DMAG was dissolved in sterile DMSO and administered i.v. via the tail vein at a dose of 15 mg/kg (MTD). […]

[10] = test system: 4T1.2 Neu tumors; experiment: Anticancer efficacy in 4T1.2 Neu tumor bearing mice; assay type: in vivo; conditions: 17-DMAG i.v. 10 mg/kg, Star-GA s.c. 45 mg/kg
Excerpt: During cell preparation of the 4T1.2 Neu cells for implantation, G418 free media was used. Prior to tumor implantation, the hair surrounding the right upper portion of the mouse's chest was removed with depilatory cream. […].
Seven week old (18-22 g) female Balb/c mice purchased from Jackson Laboratory (Bar Harbor, Me.) were used in this study. On Day 7, when tumors reached 100-250 mm^3, mice were randomly divided into four treatment groups, consisting of no treatment (n=7), 60% […] (n=5), 17-DMAG (n=7), and Star-GA (n=8). The 17-DMAG was dosed at 10 mg/kg i.v. as a 1:1 sterile DMSO:PBS solution. Star-GA was dosed at 45 mg/kg (17-HEAG basis, 15% loading, 300 mg/kg Star-GA conjugate), in sterile 35% DMSO and 65% PBS, which was divided into two peritumoral injections on either side of the mammary tumor. Finally, the 60% […] was dosed at an equivalent star polymer concentration used for the 45 mg/kg Star-GA (255 mg/kg 60% […]), which was divided into two peritumoral injections onto either side of the mammary tumor. Tumor volumes were monitored and reported every two days (FIG. 33).
To minimize the occurrence of necrotic tails upon dosing 17-DMAG, as observed in the B16F10 in vivo study described in the previous section, 17-DMAG was dosed at 10 mg/kg i.v. in a 1:1 sterile DMSO:PBS solution rather than 15 mg/kg in 100% DMSO.

[11] = 17-DMAG i.v.; cited from earlier work
[12] = Metastatic analysis of axillary lymph nodes by nodal volume and rtPCR; conditions: one mouse
Description: The metastatic state of the 4T1.2 Neu tumor model post treatment was assessed by axillary lymph node volume and the nodal HER 2 expression.
The total RNAs from the frozen lymph node samples were extracted using TriZol reagent (Invitrogen). The first-strand cDNA was synthesized using the Omniscript-RT Kit (QIAGEN, Valencia, Calif.). Primers for the Erbb2 (HER2 RT^2 qpCR primer assay, proprietary primer sequence, QIAGEN) and 18S housekeeping gene (forward: 5′-[sequence]-3′ reverse: 5′-[sequence]-3′) (IDT Inc, Coralville, Iowa) were used. The real-time PCR, in a reaction volume of 25 μL, was performed using the SYBR Green Supermix kit with the Bio-Rad iQ5 system (Hercules, Calif.).
During the lymph node harvesting, gross visualization of the organs was made to identify any obvious signs of metastases, growths, or toxicities associated with any of the treatments.

[13] = test system: MDA-1986 cells; experiment: Nitric oxide release (Griess) in cell culture with MDA-1986 cells; assay type: cell-based, human
Description: The fluorescence intensity was measured between 520 and 550 nm using a fluorescence microplate reader.
The concentration of nitrite, the stable breakdown product of gaseous nitric oxide, was measured using Griess assay as an indirect measurement of nitric oxide concentration in cell culture media. The assay is based on the reaction between sulfanilamide, N-1-napthyethylenediamine dihydrochloride and nitrite, under acidic conditions to produce a […] azo compound.

[14] = cited from earlier work
[15] = 72 h; Star-GA on GA basis; read-out: IC50s HUVEC

IC50 [2]: 42000 ± 4000 nM
SMILES: CCOC(=O)N1CCN(/[N+]([O-])=N/Oc2ccc([N+](=O)[O-])cc2[N+](=O)[O-])CC1 [JS-K, O^2-(2,4-Dinitrophenyl) 1-[(4-ethoxycarbonyl)piperazin-1-yl]diazen-1ium-1,2-diolate]
IC50 [1]: 16000 ± 2000 nM
disease condition (modified RECIST), animal No. 1 ([3]; 10 mg/kg on NO prodrug basis): PD (PD = Progressive Disease (>30% tumor growth))
disease condition (modified RECIST), animal No. 2 ([3]; 10 mg/kg on NO prodrug basis): Necrosis
disease condition (modified RECIST), animal No. 3 ([3]; 10 mg/kg on NO prodrug basis): PD (PD = Progressive Disease (>30% tumor growth))
disease condition (modified RECIST), animal No. 4 ([3]; 10 mg/kg on NO prodrug basis): PD (PD = Progressive Disease (>30% tumor growth))
disease condition (modified RECIST), animal No. 5 ([3]; 10 mg/kg on NO prodrug basis): Necrosis
disease condition (modified RECIST), animal No. 6 ([3]; 10 mg/kg on NO prodrug basis): PD (PD = Progressive Disease (>30% tumor growth))
tumor size ([3]; JS-K i.v. six weeks after tumor cell implantation, sugar-NO1 s.c. same time frame, 10 mg/kg): approximately 1000 mm^3
animals euthanized ([3]; within 7 weeks, tumor size exceeding 1000 mm^3 or necrosis of injection site on the tail): 100%

SMILES: CO[C@H]1/C=C\C=C(/C)C(=O)NC2=CC(=O)C(NCCN(C)C)=C(C[C@@H](C)C[C@H](OC)[C@H](O)[C@@H](C)/C=C(\C)[C@@H]1OC(N)=O)C2=O [17-DMAG, 17-dimethylaminoethylamino-17-demethoxygeldanamycin]
IC50 ([4]; 72 h, Star-GA on GA basis): 250 nM
increase in in vitro toxicity in comparison to melphalan ([4]; B16F10 cell line): 400 fold
IC50 ([5]; 72 h, Star-GA on GA basis): 44 nM
IC50 [6, 15]: 29000 nM
IC50 [7]: 296 nM
IC50 [8]: 189 nM
physical signs of toxicities ([9]; B16F10 study doses): signs of tail necrosis
B16F10 tumor response [9]: did not exhibit statistically significant tumor growth inhibition
survival [10]: neither 17-DMAG nor star-GA treatments exhibited an increase in survival
4T1.2 Neu tumor response compared to non-treated mice ([10]; polymer 255 mg/kg): no statistical significances
MTD [11]: 15 mg/kg
gross visualization of the organs [12]: appeared to have liver metastases

IC50 ([4]; 72 h, Star-GA on GA basis): 825 nM
SMILES: C=CCNC1=C2C[C@@H](C)C[C@H](OC)[C@H](O)[C@@H](C)/C=C(\C)[C@H](OC(N)=O)[C@@H](OC)/C=C\C=C(/C)C(=O)NC(=CC1=O)C2=O [17-AAG, 17-allylamino-17-demethoxygeldanamycin]
IC50 ([5]; 72 h, Star-GA on GA basis): 53 nM
IC50 [6, 15]: 64000 nM
IC50 [7]: 315 nM

SMILES: N[C@@H](Cc1ccc(N(CCCl)CCCl)cc1)C(=O)O [melphalan]
IC50 ([4]; Mus musculus, B16-F10, 72 h): 103000 nM
IC50 ([5]; Homo sapiens, A2058, 72 h): 30000 nM
IC50 ([6]; Homo sapiens, HUVEC, 72 h, read-out: IC50s HUVEC): 209000 nM
B16F10 tumor response [9]: complete response to treatment

IC50 ([4]; Mus musculus, B16-F10, 72 h, Star-GA on GA basis): 36 nM
SMILES: COC1=C2C[C@@H](C)C[C@H](OC)[C@H](O)[C@@H](C)/C=C(\C)[C@H](OC(N)=O)[C@@H](OC)/C=C\C=C(/C)C(=O)NC(=CC1=O)C2=O [geldanamycin]
IC50 ([5]; Homo sapiens, A2058, 72 h, Star-GA on GA basis): 44 nM
IC50 ([6]; Homo sapiens, HUVEC, 72 h; read-out: IC50s HUVEC): 440 nM
IC50 ([7]; Mus musculus, 4T1.2): 260 nM
IC50 ([8]; Homo sapiens, MDA-MB-231): 963 nM

IC50 [2]: 27000 ± 3000 nM
Release half-life [13]: 9.0 h
SMILES: CC1CN([N+]([O-])=NOc2ccc([N+](=O)[O-])cc2[N+](=O)[O-])CCN1CCO (stereo not drawn) [NO2, O^2-(2,4-Dinitrophenyl) 1-[[4-(2-hydroxy)ethyl]-3-methylpiperazin-1-yl]diazen-1-ium-1,2-diolate]
IC50 [1]: 57000 ± 6000 nM

SMILES: [N]=O [nitric oxide]
half-life in vivo [14]: about 5 seconds
